In patent US8575158B2, “1-phenyl-substituted heterocyclyl derivatives and their use as prostaglandin D2 receptor modulators” (Actelion Pharmaceuticals Ltd., priority 2010, dated 2013):

Molecular target: T1, hCRTH2 receptor (Homo sapiens, UniProt Q9Y5Y4)
T1 construct: expressed in transfected cells; host or cells: HEK293
T1 sequence (Q9Y5Y4 1-395): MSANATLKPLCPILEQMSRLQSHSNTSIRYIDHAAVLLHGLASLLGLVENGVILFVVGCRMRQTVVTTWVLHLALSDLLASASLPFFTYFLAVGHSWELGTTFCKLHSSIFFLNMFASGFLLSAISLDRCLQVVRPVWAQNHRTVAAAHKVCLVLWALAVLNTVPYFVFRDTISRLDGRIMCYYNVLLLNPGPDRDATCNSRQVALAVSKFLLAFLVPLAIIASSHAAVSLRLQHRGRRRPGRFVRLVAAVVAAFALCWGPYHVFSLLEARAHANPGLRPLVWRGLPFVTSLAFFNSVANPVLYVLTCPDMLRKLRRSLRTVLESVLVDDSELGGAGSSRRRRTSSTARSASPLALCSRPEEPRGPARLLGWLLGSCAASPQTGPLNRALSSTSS
Experiment: Radioligand displacement assay (3H-PGD2) on hCRTH2 receptor membranes
Assay type: binding
Conditions: antagonistic activity; 3H-PGD2 displacement on HEK293-hCRTH2 membrane fragments
Procedure: First, recombinant HEK293-hCRTH2 cells were detached from culture plates into 5 ml buffer A/plate (Buffer A: 5 mM Tris, 1 mM MgCl2-6H2O pH=7.4) using a rubber policeman. Cells were then transferred into centrifugation tubes and centrifuged for 5 min at 400 g. The cell pellet was resuspended in the same buffer and tubes were frozen at −80° C. Cells were thawed and membrane fragments were generated by homogenization using a polytron homogenizer (30 seconds). The membrane fragments were then centrifuged at 3000 g for 20 minutes and resuspended in buffer C (Buffer C: 75 mM Tris, 25 mM MgCl2, 250 mM Saccharose pH 7.4). Aliquots of membrane fragments were stored at −20° C.
Binding assay was performed in a final assay volume of 250 μl. First, 25 μl of test compound, previously diluted in Binding-Buffer (Binding-Buffer: 50 mM Tris-Base, 100 mM NaCl, 1 mM EDTA, 0.1% BSA (protease free), 0.01% NaN3, 10 mM MnCl2, pH 7.0) was placed into each well. After addition of 75 μl Binding-Buffer, 50 μl of the radioligand ^3H-PGD2 (at 2.5 nM (220.000 dpm/well) from ANAWA ART0662) was added to each well. Binding assay was started by addition of 100 μl CRTH2 membrane fragments, reaching a final concentration of 20 μg/well. For non-specific binding, PGD2 was added to the reaction mixture to […] final concentration.
This assay mix was incubated for 90 minutes at room temperature and then filtered through a GF/C filter 96-well plate which was pre-soaked for 3 hours in 0.5% polyethyleneimine (PEI). The filter-wells were washed three times with ice cold Binding-Buffer. Then, 40 μl of Microscint-40 (Packard) was added to each well and the retained radioactivity quantified in a Topcount (Packard).

Row | SMILES | IC50 [µM]
1 | O=C(O)COc1ccc(Cl)cc1C1c2ccccc2CCN1C(=O)CC1CC1 (racemic) [Example 68, (±)-{4-Chloro-2-[2-(2-cyclopropyl-acetyl)-1,2,3,4-tetrahydro-isoquinolin-1-yl]-phenoxy}-acetic acid] | 0.508
2 | O=C(O)COc1ccc(Cl)cc1C1c2ccccc2CCN1C(=O)C1=Cc2ccccc2OC1 (racemic) [Example 69, (±)-{4-Chloro-2-[2-(2H-chromene-3-carbonyl)-1,2,3,4-tetrahydro-isoquinolin-1-yl]-phenoxy}-acetic acid] | 0.377
3 | COCCC(=O)N1CCc2ccccc2C1c1cc(Cl)ccc1OCC(=O)O (racemic) [Example 70, (±)-{4-Chloro-2-[2-(3-methoxy-propionyl)-1,2,3,4-tetrahydro-isoquinolin-1-yl]-phenoxy}-acetic acid] | 0.139
4 | O=C(O)COc1ccc(Cl)cc1C1c2ccccc2CCN1C(=O)Cc1ccccc1Cl (racemic) [Example 71, (±)-(4-Chloro-2-{2-[2-(2-chloro-phenyl)-acetyl]-1,2,3,4-tetrahydro-isoquinolin-1-yl}-phenoxy)-acetic acid] | 0.291
5 | O=C(O)COc1ccc(Cl)cc1C1c2ccccc2CCN1C(=O)Cn1ccc2ccccc21 (racemic) [Example 72, (±)-{4-Chloro-2-[2-(2-indol-1-yl-acetyl)-1,2,3,4-tetrahydro-isoquinolin-1-yl]-phenoxy}-acetic acid] | 0.044
6 | O=C(O)COc1ccc(Cl)cc1C1c2ccccc2CCN1C(=O)Cn1cnc2ccccc21 (racemic) [Example 78, (±)-{2-[2-(2-Benzoimidazol-1-yl-acetyl)-1,2,3,4-tetrahydro-isoquinolin-1-yl]-4-chloro-phenoxy}-acetic acid] | 0.0511
7 | O=C(O)COc1ccc(Cl)cc1C1c2ccccc2CCN1C(=O)CN1CCCc2ccccc21 (racemic) [Example 79, (±)-{4-Chloro-2-[2-(2-3,4-dihydro-2H-quinolin-1-yl-acetyl)-1,2,3,4-tetrahydro-isoquinolin-1-yl]-phenoxy}-acetic acid] | 0.0629
8 | O=C(O)COc1ccc(Cl)cc1C1c2ccccc2CCN1C(=O)Cn1cc2ccccc2n1 (racemic) [Example 80, (±)-{4-Chloro-2-[2-(2-indazol-2-yl-acetyl)-1,2,3,4-tetrahydro-isoquinolin-1-yl]-phenoxy}-acetic acid] | 0.0469
9 | O=C(O)COc1ccc(Cl)cc1C1c2ccccc2CCN1C(=O)CCc1cccc(C(F)(F)F)c1 (racemic) [Example 81, (±)-(4-Chloro-2-{2-[3-(3-trifluoromethyl-phenyl)-propionyl]-1,2,3,4-tetrahydro-isoquinolin-1-yl}-phenoxy)-acetic acid] | 0.0275
10 | O=C(O)COc1ccc(Cl)cc1C1c2ccccc2CCN1C(=O)CCc1nccn1-c1ccccc1 (racemic) [Example 83, (±)-(4-Chloro-2-{2-[3-(1-phenyl-1H-imidazol-2-yl)-propionyl]-1,2,3,4-tetrahydro-isoquinolin-1-yl}-phenoxy)-acetic acid] | 0.422
11 | O=C(O)COc1ccc(Cl)cc1C1c2ccccc2CCN1C(=O)COc1ccccc1-c1ccccc1 (racemic) [Example 86, (±)-(2-{2-[2-(Biphenyl-2-yloxy)-acetyl]-1,2,3,4-tetrahydro-isoquinolin-1-yl}-4-chloro-phenoxy)-acetic acid] | 0.422
12 | Cc1ccc(OCCC(=O)N2CCc3ccccc3C2c2cc(Cl)ccc2OCC(=O)O)cc1 (racemic) [Example 88, (±)-{4-Chloro-2-[2-(3-p-tolyloxy-propionyl)-1,2,3,4-tetrahydro-isoquinolin-1-yl]-phenoxy}-acetic acid] | 0.148
13 | O=C(O)COc1ccc(Cl)cc1C1c2ccccc2CCN1C(=O)CCOc1ccc(Cl)cc1 (racemic) [Example 89, (±)-(4-Chloro-2-{2-[3-(4-chloro-phenoxy)-propionyl]-1,2,3,4-tetrahydro-isoquinolin-1-yl}-phenoxy)-acetic acid] | 0.0379
14 | O=C(O)COc1ccc(Cl)cc1C1c2ccccc2CCN1C(=O)CCc1ccccc1C(F)(F)F (racemic) [Example 90, (±)-(4-Chloro-2-{2-[3-(2-trifluoromethyl-phenyl)-propionyl]-1,2,3,4-tetrahydro-isoquinolin-1-yl}-phenoxy)-acetic acid] | 0.0458
15 | O=C(O)COc1ccc(Cl)cc1C1c2ccccc2CCN1C(=O)Cc1c[nH]c2ccc(F)cc12 (racemic) [Example 91, (±)-(4-Chloro-2-{2-[2-(5-fluoro-1H-indol-3-yl)-acetyl]-1,2,3,4-tetrahydro-isoquinolin-1-yl}-phenoxy)-acetic acid] | 0.113
16 | O=C(O)COc1ccc(Cl)cc1C1c2ccccc2CCN1C(=O)CCOc1cccc(Cl)c1 (racemic) [Example 95, (±)-(4-Chloro-2-{2-[3-(3-chloro-phenoxy)-propionyl]-1,2,3,4-tetrahydro-isoquinolin-1-yl}-phenoxy)-acetic acid] | 0.0275
17 | O=C(O)COc1ccc(Cl)cc1C1c2ccccc2CCN1C(=O)Cc1c[nH]c2ccc(Cl)cc12 (racemic) [Example 96, (±)-(4-Chloro-2-{2-[2-(5-chloro-1H-indol-3-yl)-acetyl]-1,2,3,4-tetrahydro-isoquinolin-1-yl}-phenoxy)-acetic acid] | 0.172

The next molecules have a lower IC50 than those just listed; values first:

Row | IC50 [µM] | SMILES
18 | 0.0189 | Cc1cccc(-n2cncc2CCC(=O)N2CCc3ccccc3C2c2cc(Cl)ccc2OCC(=O)O)c1C (racemic) [Example 85, (±)-[4-Chloro-2-(2-{3-[3-(2,3-dimethyl-phenyl)-3H-imidazol-4-yl]-propionyl}-1,2,3,4-tetrahydro-isoquinolin-1-yl)-phenoxy]-acetic acid]
19 | 0.0178 | O=C(O)COc1ccc(Cl)cc1C1c2ccccc2CCN1C(=O)CCOc1cccc(F)c1 (racemic) [Example 87, (±)-(4-Chloro-2-{2-[3-(3-fluoro-phenoxy)-propionyl]-1,2,3,4-tetrahydro-isoquinolin-1-yl}-phenoxy)-acetic acid]
20 | 0.0162 | Cc1cccc(OCCC(=O)N2CCc3ccccc3C2c2cc(Cl)ccc2OCC(=O)O)c1 (racemic) [Example 94, (±)-{4-Chloro-2-[2-(3-m-tolyloxy-propionyl)-1,2,3,4-tetrahydro-isoquinolin-1-yl]-phenoxy}-acetic acid]
21 | 0.0155 | O=C(O)COc1ccc(F)cc1C1c2ccccc2CCN1C(=O)[C@@H]1C[C@H]1c1ccccc1 (mixture of isomers) [Example 67, (±)-{4-Fluoro-2-[2-(trans-2-phenyl-cyclopropanecarbonyl)-1,2,3,4-tetrahydro-isoquinolin-1-yl]-phenoxy}-acetic acid]
22 | 0.0129 | O=C(O)COc1ccc(Cl)cc1C1c2ccccc2CCN1C(=O)CCCc1ccc(Cl)cc1 (racemic) [Example 93, (±)-(4-Chloro-2-{2-[4-(4-chloro-phenyl)-butyryl]-1,2,3,4-tetrahydro-isoquinolin-1-yl}-phenoxy)-acetic acid]
23 | 0.00446 | Cn1cc(CCC(=O)N2CCc3ccccc3C2c2cc(Cl)ccc2OCC(=O)O)c2ccccc21 (racemic) [Example 76, (±)-(4-Chloro-2-{2-[3-(1-methyl-1H-indol-3-yl)-propionyl]-1,2,3,4-tetrahydro-isoquinolin-1-yl}-phenoxy)-acetic acid]
24 | 0.00413 | Cc1[nH]c2ccccc2c1CCC(=O)N1CCc2ccccc2C1c1cc(Cl)ccc1OCC(=O)O (racemic) [Example 73, (±)-(4-Chloro-2-{2-[3-(2-methyl-1H-indol-3-yl)-propionyl]-1,2,3,4-tetrahydro-isoquinolin-1-yl}-phenoxy)-acetic acid]
25 | 0.00368 | Cc1ccc(OCC(=O)N2CCc3ccccc3C2c2cc(Cl)ccc2OCC(=O)O)c(C)n1 (racemic) [Example 75, (±)-(4-Chloro-2-{2-[2-(2,6-dimethyl-pyridin-3-yloxy)-acetyl]-1,2,3,4-tetrahydro-isoquinolin-1-yl}-phenoxy)-acetic acid]
26 | 0.00286 | COc1ccc2c(CC(=O)N3CCc4ccccc4C3c3cc(Cl)ccc3OCC(=O)O)coc2c1 (racemic) [Example 92, (±)-(4-Chloro-2-{2-[2-(6-methoxy-benzofuran-3-yl)-acetyl]-1,2,3,4-tetrahydro-isoquinolin-1-yl}-phenoxy)-acetic acid]
27 | 0.00142 | COc1ccc2[nH]cc(CCC(=O)N3CCc4ccccc4C3c3cc(Cl)ccc3OCC(=O)O)c2c1 (racemic) [Example 74, (±)-(4-Chloro-2-{2-[3-(5-methoxy-1H-indol-3-yl)-propionyl]-1,2,3,4-tetrahydro-isoquinolin-1-yl}-phenoxy)-acetic acid]
